Several values for one entry are separate records, joined by “and”; a condition that tells them apart may be missing. Equal values may be shown once.
How the values were obtained:
HDAC7 = molecular target: T1, HDAC7 (Homo sapiens, UniProt Q8WUI4); experiment: HDAC7 fluorogenic activity assay; conditions: Repeat1/Repeat2, listed as OA2
T1 sequence (Q8WUI4 518-952 limits assumed): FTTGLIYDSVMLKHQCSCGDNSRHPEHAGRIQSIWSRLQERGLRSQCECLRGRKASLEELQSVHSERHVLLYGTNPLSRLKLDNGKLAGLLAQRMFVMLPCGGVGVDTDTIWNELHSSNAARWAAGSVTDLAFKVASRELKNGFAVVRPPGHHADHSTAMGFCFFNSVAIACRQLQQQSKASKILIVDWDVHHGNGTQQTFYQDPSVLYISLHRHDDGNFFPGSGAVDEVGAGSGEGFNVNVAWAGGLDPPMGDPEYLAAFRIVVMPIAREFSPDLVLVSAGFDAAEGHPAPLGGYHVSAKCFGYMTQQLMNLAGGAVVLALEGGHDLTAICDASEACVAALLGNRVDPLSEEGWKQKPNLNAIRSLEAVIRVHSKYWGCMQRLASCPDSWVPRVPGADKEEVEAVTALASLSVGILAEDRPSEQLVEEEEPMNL

HDAC6 = molecular target: T2, HDAC6 (Homo sapiens, UniProt Q9UBN7); experiment: HDAC6 fluorogenic activity assay; conditions: for % Activity: Repeat1/Repeat2, listed as OA2
T2 sequence (Q9UBN7 1-1215): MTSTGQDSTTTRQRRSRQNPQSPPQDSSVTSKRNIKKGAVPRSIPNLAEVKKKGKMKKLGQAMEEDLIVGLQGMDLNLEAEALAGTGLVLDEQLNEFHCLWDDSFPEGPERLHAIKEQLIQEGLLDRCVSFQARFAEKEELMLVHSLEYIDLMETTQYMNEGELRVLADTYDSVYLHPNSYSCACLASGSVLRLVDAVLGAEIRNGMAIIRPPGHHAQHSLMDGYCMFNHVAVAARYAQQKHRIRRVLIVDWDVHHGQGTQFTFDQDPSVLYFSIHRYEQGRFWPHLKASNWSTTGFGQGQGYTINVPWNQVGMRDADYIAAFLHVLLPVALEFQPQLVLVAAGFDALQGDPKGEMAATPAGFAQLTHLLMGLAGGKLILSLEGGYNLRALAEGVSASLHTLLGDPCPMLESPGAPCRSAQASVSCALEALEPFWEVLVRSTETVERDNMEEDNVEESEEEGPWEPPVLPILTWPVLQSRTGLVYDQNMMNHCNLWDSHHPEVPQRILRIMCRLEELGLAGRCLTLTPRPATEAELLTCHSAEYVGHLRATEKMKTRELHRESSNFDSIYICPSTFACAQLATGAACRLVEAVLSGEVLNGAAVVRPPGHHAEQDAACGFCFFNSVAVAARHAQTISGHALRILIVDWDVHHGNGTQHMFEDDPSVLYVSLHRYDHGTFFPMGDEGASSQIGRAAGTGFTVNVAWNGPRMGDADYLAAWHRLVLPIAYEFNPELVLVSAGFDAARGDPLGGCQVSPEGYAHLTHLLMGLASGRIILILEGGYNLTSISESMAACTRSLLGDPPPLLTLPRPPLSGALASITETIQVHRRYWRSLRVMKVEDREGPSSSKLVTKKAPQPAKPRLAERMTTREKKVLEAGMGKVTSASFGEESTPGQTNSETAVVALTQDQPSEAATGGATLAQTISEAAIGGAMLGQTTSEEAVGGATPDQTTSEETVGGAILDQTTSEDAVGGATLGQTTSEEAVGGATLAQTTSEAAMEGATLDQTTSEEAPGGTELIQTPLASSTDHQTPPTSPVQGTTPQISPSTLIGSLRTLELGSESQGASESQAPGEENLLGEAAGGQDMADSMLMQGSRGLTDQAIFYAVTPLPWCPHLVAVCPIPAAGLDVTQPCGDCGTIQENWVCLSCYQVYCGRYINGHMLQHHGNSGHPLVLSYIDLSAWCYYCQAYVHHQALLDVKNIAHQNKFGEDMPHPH

HDAC5FL = HDAC5FL (Homo sapiens, UniProt Q9UQL6); experiment: HDAC5FL fluorogenic activity assay; conditions: Repeat1/Repeat2, listed as OA2
YAC128 mice = experiment: Accelerating rotarod in YAC128 Huntington's Disease mice; type: in vivo; conditions: YF2 5 mg/kg from age 2 months
Method: Animals: Mouse models of Huntington's Disease (YAC128) versus wildtype (WT) littermates.
Accelerating Rotarod: This assay is a common assay used to monitor motor coordination in mouse models of Huntington's disease (HD). After a training period to acclimatize the mice to the apparatus, mice are placed on a rod rotating at 5 rpm. Over the test period of 300 sec, the rod increases its rotational speed from 5 rpm to 40 rpm. The time at which the mouse falls off of the rod is recorded. Each mouse is subject to 3 runs per day (shown as a per day average) across 3 days (d1, d2, d3). Typically 8 to 12 mice per group are used in this assay. Both male and female data are shown for age 4 months (FIG. 83A) and 6 months (FIG. 83B).

Chain of HDAC5FL (Q9UQL6 whole entry): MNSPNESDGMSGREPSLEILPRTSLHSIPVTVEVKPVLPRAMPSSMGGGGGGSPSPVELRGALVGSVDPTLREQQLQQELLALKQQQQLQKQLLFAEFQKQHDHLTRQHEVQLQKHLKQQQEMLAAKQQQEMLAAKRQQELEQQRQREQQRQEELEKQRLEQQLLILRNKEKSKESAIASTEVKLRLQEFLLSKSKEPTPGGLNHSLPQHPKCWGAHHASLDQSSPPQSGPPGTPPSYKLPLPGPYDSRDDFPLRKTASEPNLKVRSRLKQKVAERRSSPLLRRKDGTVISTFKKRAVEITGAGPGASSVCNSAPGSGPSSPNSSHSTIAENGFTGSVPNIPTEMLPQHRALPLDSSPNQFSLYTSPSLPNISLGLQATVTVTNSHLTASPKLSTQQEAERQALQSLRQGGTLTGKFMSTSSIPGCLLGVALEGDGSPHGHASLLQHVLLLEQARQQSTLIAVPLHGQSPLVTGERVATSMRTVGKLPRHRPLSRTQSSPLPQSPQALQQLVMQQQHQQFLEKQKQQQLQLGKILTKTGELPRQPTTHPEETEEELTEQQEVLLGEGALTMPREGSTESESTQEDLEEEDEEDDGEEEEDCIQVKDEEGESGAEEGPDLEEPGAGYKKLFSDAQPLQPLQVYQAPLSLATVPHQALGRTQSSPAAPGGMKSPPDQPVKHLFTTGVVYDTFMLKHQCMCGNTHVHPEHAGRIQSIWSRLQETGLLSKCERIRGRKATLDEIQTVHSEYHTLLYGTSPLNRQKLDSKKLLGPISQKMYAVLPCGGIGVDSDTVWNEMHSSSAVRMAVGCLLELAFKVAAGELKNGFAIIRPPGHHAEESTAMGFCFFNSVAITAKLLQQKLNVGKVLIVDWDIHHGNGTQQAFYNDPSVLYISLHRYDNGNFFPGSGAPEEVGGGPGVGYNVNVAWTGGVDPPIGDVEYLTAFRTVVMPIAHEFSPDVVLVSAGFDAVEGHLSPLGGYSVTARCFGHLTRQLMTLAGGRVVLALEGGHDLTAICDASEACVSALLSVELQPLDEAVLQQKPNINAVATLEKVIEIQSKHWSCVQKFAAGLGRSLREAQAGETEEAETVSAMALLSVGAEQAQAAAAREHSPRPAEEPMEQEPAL

CCOc1cccc(OCCN(C)C)c1C(=O)Nc1ccc(Cl)c(C(F)(F)F)c1 [YF2]
% Activity (HDAC7; OA2 Log[nM] 0.5): 103.11% and 97.69% | % Activity (HDAC7; OA2 Log[nM] 1.0): 91.37% and 91.47% | % Activity (HDAC7; OA2 Log[nM] 1.5): 101.63% and 104.98% | % Activity (HDAC7; OA2 Log[nM] 2.0): 104.61% and 97.68% | % Activity (HDAC7; OA2 Log[nM] 2.5): 95.80% and 95.75% | % Activity (HDAC7; OA2 Log[nM] 3.0): 96.02% and 98.69% | % Activity (HDAC7; OA2 Log[nM] 3.5): 100.73% and 92.77% | % Activity (HDAC7; OA2 Log[nM] 4.0): 90.73% and 101.73% | % Activity (HDAC7; OA2 Log[nM] 4.5): 95.78% and 99.80% | % Activity (HDAC7; OA2 Log[nM] 5.3): 96.89% and 100.04% | IC50 (HDAC6): > 200 µM | % Activity (HDAC6; OA2 Log[nM] 0.5): 104.75% and 106.28% | % Activity (HDAC6; OA2 Log[nM] 1.0): 106.10% and 100.51% | % Activity (HDAC6; OA2 Log[nM] 1.5): 96.75% and 108.50% | % Activity (HDAC6; OA2 Log[nM] 2.0): 100.33% and 105.31% | % Activity (HDAC6; OA2 Log[nM] 2.5): 99.30% and 99.28% | % Activity (HDAC6; OA2 Log[nM] 3.0): 100.06% and 94.62% | % Activity (HDAC6; OA2 Log[nM] 3.5): 96.79% and 97.61% | % Activity (HDAC6; OA2 Log[nM] 4.0): 94.62% and 100.10% | % Activity (HDAC6; OA2 Log[nM] 4.5): 79.13% and 87.65% | % Activity (HDAC6; OA2 Log[nM] 5.3): 70.40% and 102.77% | % Activity (HDAC5FL; OA2 Log[nM] 0.5): 99.80% and 92.90% | % Activity (HDAC5FL; OA2 Log[nM] 1.0): 102.59% and 97.50% | % Activity (HDAC5FL; OA2 Log[nM] 1.5): 103.20% and 104.10% | % Activity (HDAC5FL; OA2 Log[nM] 2.0): 108.64% and 106.80% | % Activity (HDAC5FL; OA2 Log[nM] 2.5): 108.60% and 107.17% | % Activity (HDAC5FL; OA2 Log[nM] 3.0): 105.76% and 99.80% | % Activity (HDAC5FL; OA2 Log[nM] 3.5): 101.30% and 99.30% | % Activity (HDAC5FL; OA2 Log[nM] 4.0): 104.91% and 104.82% | % Activity (HDAC5FL; OA2 Log[nM] 4.5): 95.40% and 94.11% | % Activity (HDAC5FL; OA2 Log[nM] 5.3): 68.63% and 94.13% | rotarod performance deficit of YAC128 vs WT mice (YAC128 mice; female mice, 6 months of age): significance is lost | rotarod performance deficit of YAC128 vs WT mice (YAC128 mice; male mice, 4 months of age): significance is lost

Source: US10640457B2, “Histone acetyltransferase activators and uses thereof” (The Trustees of Columbia University in the City of New York, priority 2009, dated 2020)
